Data from PubChem BioAssay (NCI).
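Five compound concentrations were applied to cells in 96-well plates for 48 hours; endpoints were derived by simple linear interpolation of the resulting dose-response curve. GI50 = concentration required for 50% inhibition of growth. TGI: concentration producing complete growth inhibition.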

Tests used:
Test in all cases: NCI anticancer screen, dose series, 48 h
SK-OV-3 ovarian = tested on: SK-OV-3 ovarian
EKVX NSCLC = tested on: EKVX NSCLC
UACC-62 melanoma = tested on: UACC-62 melanoma
M14 melanoma = tested on: M14 melanoma
DU-145 prostate = tested on: DU-145 prostate
SF-539 CNS = tested on: SF-539 CNS
HCT-116 colon = tested on: HCT-116 colon
MDA-MB-231 breast = tested on: MDA-MB-231 breast
HS 578T breast = tested on: HS 578T breast
HT29 colon = tested on: HT29 colon
K-562 leukemia = tested on: K-562 leukemia
MCF7 breast = tested on: MCF7 breast
SN12C renal = tested on: SN12C renal
TK-10 renal = tested on: TK-10 renal
U251 CNS = tested on: U251 CNS
HCT-15 colon = tested on: HCT-15 colon
T-47D breast = tested on: T-47D breast
SK-MEL-2 melanoma = tested on: SK-MEL-2 melanoma
NCI-H460 lung = tested on: NCI-H460 lung
ACHN renal = tested on: ACHN renal
SK-MEL-28 melanoma = tested on: SK-MEL-28 melanoma
SNB-19 CNS = tested on: SNB-19 CNS
HOP-62 NSCLC = tested on: HOP-62 NSCLC
SF-295 CNS = tested on: SF-295 CNS
SW-620 colon = tested on: SW-620 colon
HL-60(TB) leukemia = tested on: HL-60(TB) leukemia
PC-3 prostate = tested on: PC-3 prostate
MALME-3M melanoma = tested on: MALME-3M melanoma
RPMI-8226 leukemia = tested on: RPMI-8226 leukemia
KM12 colon = tested on: KM12 colon
SR leukemia = tested on: SR leukemia
IGROV1 ovarian = tested on: IGROV1 ovarian
RXF 393 renal = tested on: RXF 393 renal
OVCAR-5 ovarian = tested on: OVCAR-5 ovarian
NCI-H23 lung = tested on: NCI-H23 lung
MDA-MB-435 = tested on: MDA-MB-435
786-0 renal = tested on: 786-0 renal
NCI/ADR-RES ovarian = tested on: NCI/ADR-RES ovarian
UACC-257 melanoma = tested on: UACC-257 melanoma
UO-31 renal = tested on: UO-31 renal
LOX IMVI melanoma = tested on: LOX IMVI melanoma
COLO 205 colon = tested on: COLO 205 colon
SK-MEL-5 melanoma = tested on: SK-MEL-5 melanoma
MOLT-4 leukemia = tested on: MOLT-4 leukemia
NCI-H226 lung = tested on: NCI-H226 lung
NCI-H522 lung = tested on: NCI-H522 lung
HCC-2998 colon = tested on: HCC-2998 colon
CAKI-1 renal = tested on: CAKI-1 renal
HOP-92 NSCLC = tested on: HOP-92 NSCLC
A498 renal = tested on: A498 renal
BT-549 breast = tested on: BT-549 breast
OVCAR-4 ovarian = tested on: OVCAR-4 ovarian
SF-268 CNS = tested on: SF-268 CNS
SNB-75 CNS = tested on: SNB-75 CNS
CCRF-CEM leukemia = tested on: CCRF-CEM leukemia
A549 NSCLC = tested on: A549 NSCLC
OVCAR-8 ovarian = tested on: OVCAR-8 ovarian

Question: How did the GI50 (SK-OV-3 ovarian) turn out when CCN1CCN(c2ccc(NC(=O)Nc3ccc4c(ccn4-c4ccnc(C(=O)NC)c4)c3)cc2C(F)(F)F)CC1 was run?
Answer: > 14.3 µM

Question: And the TGI (SK-OV-3 ovarian)?
Answer: > 14.3 µM

Question: What about the GI50 (EKVX NSCLC) of the same compound?
Answer: 2.27 µM

Question: And the TGI (EKVX NSCLC)?
Answer: 4.47 µM

Question: What about the GI50 (UACC-62 melanoma) of the same compound?
Answer: 2.34 µM

Question: And the TGI (UACC-62 melanoma)?
Answer: 4.55 µM

Question: What about the GI50 (M14 melanoma) of the same compound?
Answer: 2.35 µM

Question: And the TGI (M14 melanoma)?
Answer: 4.36 µM

Question: What about the GI50 (DU-145 prostate) of the same compound?
Answer: 2.59 µM

Question: What about the TGI (DU-145 prostate) of the same compound?
Answer: 4.88 µM

Question: And the GI50 (SF-539 CNS)?
Answer: 1.63 µM

Question: And the TGI (SF-539 CNS)?
Answer: 3.48 µM

Question: What about the GI50 (HCT-116 colon) of the same compound?
Answer: 2 µM

Question: And the TGI (HCT-116 colon)?
Answer: 3.88 µM

Question: What about the GI50 (MDA-MB-231 breast) of the same compound?
Answer: 2.53 µM

Question: And the TGI (MDA-MB-231 breast)?
Answer: 5.01 µM

Question: And the GI50 (HS 578T breast)?
Answer: 2.5 µM

Question: And the TGI (HS 578T breast)?
Answer: 13.7 µM

Question: And the GI50 (HT29 colon)?
Answer: 1.07 µM

Question: What about the TGI (HT29 colon) of the same compound?
Answer: 3.22 µM

Question: And the GI50 (K-562 leukemia)?
Answer: 0.793 µM

Question: What about the TGI (K-562 leukemia) of the same compound?
Answer: 4.14 µM

Question: And the GI50 (MCF7 breast)?
Answer: 2.15 µM

Question: And the TGI (MCF7 breast)?
Answer: 5.05 µM

Question: And the GI50 (SN12C renal)?
Answer: > 14.3 µM

Question: What about the TGI (SN12C renal) of the same compound?
Answer: > 14.3 µM

Question: What about the GI50 (TK-10 renal) of the same compound?
Answer: 2.68 µM

Question: What about the TGI (TK-10 renal) of the same compound?
Answer: 4.82 µM

Question: And the GI50 (U251 CNS)?
Answer: 1.64 µM

Question: What about the TGI (U251 CNS) of the same compound?
Answer: 3.53 µM

Question: And the GI50 (HCT-15 colon)?
Answer: 1.04 µM

Question: And the TGI (HCT-15 colon)?
Answer: 3.35 µM

Question: And the GI50 (T-47D breast)?
Answer: > 14.3 µM

Question: What about the TGI (T-47D breast) of the same compound?
Answer: > 14.3 µM

Question: And the GI50 (SK-MEL-2 melanoma)?
Answer: 12.6 µM

Question: And the TGI (SK-MEL-2 melanoma)?
Answer: > 14.3 µM

Question: And the GI50 (NCI-H460 lung)?
Answer: 2.59 µM

Question: What about the TGI (NCI-H460 lung) of the same compound?
Answer: 5.03 µM

Question: And the GI50 (ACHN renal)?
Answer: 2.56 µM

Question: What about the TGI (ACHN renal) of the same compound?
Answer: 4.55 µM

Question: And the GI50 (SK-MEL-28 melanoma)?
Answer: 2.28 µM

Question: And the TGI (SK-MEL-28 melanoma)?
Answer: 4.37 µM

Question: And the GI50 (SNB-19 CNS)?
Answer: 2.36 µM

Question: And the TGI (SNB-19 CNS)?
Answer: 4.81 µM

Question: What about the GI50 (HOP-62 NSCLC) of the same compound?
Answer: 2.13 µM

Question: What about the TGI (HOP-62 NSCLC) of the same compound?
Answer: 4.3 µM

Question: What about the GI50 (SF-295 CNS) of the same compound?
Answer: 0.925 µM

Question: What about the TGI (SF-295 CNS) of the same compound?
Answer: 2.85 µM

Question: And the GI50 (SW-620 colon)?
Answer: 2.5 µM

Question: And the TGI (SW-620 colon)?
Answer: 4.79 µM

Question: What about the GI50 (HL-60(TB) leukemia) of the same compound?
Answer: 2.66 µM

Question: And the TGI (HL-60(TB) leukemia)?
Answer: 6.11 µM

Question: What about the GI50 (PC-3 prostate) of the same compound?
Answer: 2.34 µM

Question: What about the TGI (PC-3 prostate) of the same compound?
Answer: 7.38 µM

Question: And the GI50 (MALME-3M melanoma)?
Answer: 2.07 µM

Question: What about the TGI (MALME-3M melanoma) of the same compound?
Answer: 4.22 µM

Question: And the GI50 (RPMI-8226 leukemia)?
Answer: 1.57 µM

Question: And the TGI (RPMI-8226 leukemia)?
Answer: > 14.3 µM

Question: What about the GI50 (KM12 colon) of the same compound?
Answer: 0.741 µM

Question: What about the TGI (KM12 colon) of the same compound?
Answer: 2.85 µM

Question: And the GI50 (SR leukemia)?
Answer: 0.644 µM

Question: And the TGI (SR leukemia)?
Answer: 3.22 µM

Question: And the GI50 (IGROV1 ovarian)?
Answer: 2.67 µM

Question: What about the TGI (IGROV1 ovarian) of the same compound?
Answer: 5.61 µM

Question: And the GI50 (RXF 393 renal)?
Answer: 1.42 µM

Question: What about the TGI (RXF 393 renal) of the same compound?
Answer: 3.58 µM

Question: And the GI50 (OVCAR-5 ovarian)?
Answer: 11.4 µM

Question: What about the TGI (OVCAR-5 ovarian) of the same compound?
Answer: > 14.3 µM

Question: What about the GI50 (NCI-H23 lung) of the same compound?
Answer: 2.08 µM

Question: What about the TGI (NCI-H23 lung) of the same compound?
Answer: 4.23 µM

Question: And the GI50 (MDA-MB-435)?
Answer: 2.46 µM

Question: What about the TGI (MDA-MB-435) of the same compound?
Answer: 4.56 µM

Question: What about the GI50 (786-0 renal) of the same compound?
Answer: 1.73 µM

Question: What about the TGI (786-0 renal) of the same compound?
Answer: 3.63 µM

Question: What about the GI50 (NCI/ADR-RES ovarian) of the same compound?
Answer: 3.08 µM

Question: What about the TGI (NCI/ADR-RES ovarian) of the same compound?
Answer: 7.44 µM

Question: And the GI50 (UACC-257 melanoma)?
Answer: 2.45 µM

Question: What about the TGI (UACC-257 melanoma) of the same compound?
Answer: 4.68 µM

Question: What about the GI50 (UO-31 renal) of the same compound?
Answer: 2.23 µM

Question: And the TGI (UO-31 renal)?
Answer: 4.21 µM

Question: And the GI50 (LOX IMVI melanoma)?
Answer: 2.21 µM

Question: And the TGI (LOX IMVI melanoma)?
Answer: 4.22 µM

Question: What about the GI50 (COLO 205 colon) of the same compound?
Answer: > 14.3 µM

Question: What about the TGI (COLO 205 colon) of the same compound?
Answer: > 14.3 µM

Question: And the GI50 (SK-MEL-5 melanoma)?
Answer: 2.52 µM

Question: And the TGI (SK-MEL-5 melanoma)?
Answer: 4.56 µM

Question: And the GI50 (MOLT-4 leukemia)?
Answer: 1.79 µM

Question: What about the TGI (MOLT-4 leukemia) of the same compound?
Answer: 9.46 µM

Question: What about the GI50 (NCI-H226 lung) of the same compound?
Answer: > 14.3 µM

Question: And the TGI (NCI-H226 lung)?
Answer: > 14.3 µM

Question: And the GI50 (NCI-H522 lung)?
Answer: > 14.3 µM

Question: What about the TGI (NCI-H522 lung) of the same compound?
Answer: > 14.3 µM

Question: And the GI50 (HCC-2998 colon)?
Answer: 2.47 µM

Question: And the TGI (HCC-2998 colon)?
Answer: 4.54 µM

Question: And the GI50 (CAKI-1 renal)?
Answer: 2.68 µM

Question: What about the TGI (CAKI-1 renal) of the same compound?
Answer: 5.07 µM

Question: And the GI50 (HOP-92 NSCLC)?
Answer: 1.55 µM

Question: What about the TGI (HOP-92 NSCLC) of the same compound?
Answer: 3.44 µM

Question: And the GI50 (A498 renal)?
Answer: 13.5 µM

Question: What about the TGI (A498 renal) of the same compound?
Answer: > 14.3 µM

Question: And the GI50 (BT-549 breast)?
Answer: > 14.3 µM

Question: And the TGI (BT-549 breast)?
Answer: > 14.3 µM

Question: What about the GI50 (OVCAR-4 ovarian) of the same compound?
Answer: 2.65 µM

Question: What about the TGI (OVCAR-4 ovarian) of the same compound?
Answer: 5.86 µM

Question: What about the GI50 (SF-268 CNS) of the same compound?
Answer: 2.53 µM

Question: What about the TGI (SF-268 CNS) of the same compound?
Answer: 5.66 µM

Question: And the GI50 (SNB-75 CNS)?
Answer: 5.22 µM

Question: And the TGI (SNB-75 CNS)?
Answer: > 14.3 µM

Question: And the GI50 (CCRF-CEM leukemia)?
Answer: 3.77 µM

Question: What about the TGI (CCRF-CEM leukemia) of the same compound?
Answer: > 14.3 µM

Question: What about the GI50 (A549 NSCLC) of the same compound?
Answer: 2.28 µM

Question: What about the TGI (A549 NSCLC) of the same compound?
Answer: 4.5 µM

Question: What about the GI50 (OVCAR-8 ovarian) of the same compound?
Answer: 2.62 µM

Question: And the TGI (OVCAR-8 ovarian)?
Answer: 5.49 µM
